# Experimental data as given in US20240197652A1, “KETAMINE IN THE TREATMENT OF […]” (Awakn LS Europe Holdings Limited, priority 2021, published 2024).
# Legend:
# Format in all cases: in vivo, human
# [1] = Plasma ketamine, HNK and norketamine levels, gambling disorder subjects (Example 7); conditions: analyte = label; for peak plasma concentration: 100 mg racemic ketamine sublingual; for time of peak plasma concentration: post-administration of 100 mg racemic ketamine sublingual
# Procedure: A study was completed on the use of ketamine to treat gambling disorder. Subjects were assessed for gambling disorder using the PGSI. Subjects were included if they received a PGSI score greater than 3. Five subjects in total were included (G1-G5). All five subjects were administered ketamine. Blood samples were collected from all five subjects. Blood samples were analysed to determine ketamine and ketamine metabolite levels, and each subject was assessed post-administration to determine the effectiveness of the treatment.
# On Day 3, each subject returned on-site and was administered ketamine. 100 mg of racemic ketamine was administered in as sublingual lozenges.
# (§1) Blood samples were collected every 10 minutes, from 0 minutes (the time of administration) to 90 minutes post-administration. Blood samples at each time point were analysed to determine plasma levels of (2S,6S;2R,6R)-Hydroxynorketamine (HNK).
# [2] = Plasma ketamine, HNK and norketamine levels, binge eating disorder subjects (Example 8); conditions: analyte = label; for peak plasma concentration: 100 mg racemic ketamine sublingual; for time of peak plasma concentration: post-administration of 100 mg racemic ketamine sublingual
# Procedure: A study was completed on the use of ketamine to treat binge eating disorder. Subjects were assessed for binge eating disorder using the Binge Eating Scale (BES), and included if they received a BES score greater than 15. Three subjects in total were included (BE1-BE3, and interchangeably on FIGS. 5 and 6 as BED1-BED3, these being the same subjects). All three were administered sublingual lozenges comprising 100 mg of racemic ketamine.
# Blood samples were collected from all three subjects. Blood samples were analysed to determine ketamine and ketamine metabolite levels, as well as the hormones leptin and ghrelin. Self-report measures were conducted.
# The treatment protocol commenced in substantially the same way as disclosed in the ketamine in subjects with gambling disorder study completed in EXAMPLE 7, with the exceptions outlined as follows: No behavioural tasks were completed. Blood samples collected every 10 minutes from the time of administration to 90 minutes post-administration were additionally analysed for leptin and ghrelin. Self-report measures included the Binge Eating Scale, the Adult Attachment Interview (AAI), a 20 question interview about the subject's recollections of their childhood (Sykes and Turner, 2015); the Childhood Trauma Questionnaire; the Morningness-Eveningness Questionnaire (MEQ), a 19-item questionnaire designed to assess when a respondent prefers to wake up or start sleep (American Thoracic Society, 2022); the DSM-5 Binge Eating Disorder diagnostic criteria; and the SPSRQ.
# [3] = Plasma ketamine, HNK and norketamine levels, gaming disorder subjects (Example 9); conditions: analyte = label; for peak plasma concentration: 100 mg racemic ketamine sublingual; for time of peak plasma concentration: post-administration of 100 mg racemic ketamine sublingual
# Procedure: A study was completed on ketamine to treat gaming disorder. Subjects were assessed for gaming disorder using the Internet Gaming Disorder Scale (IGDS) and were included if they received an IGDS score greater than 3. Three subjects in total were included (IG1-IG3). All three were administered sublingual lozenges comprising 100 mg of racemic ketamine.
# Blood samples were collected from all three subjects. Blood samples were analysed to determine ketamine and ketamine metabolite levels. Assessments were conducted as below.
# The treatment protocol commenced in the same manner as disclosed in the ketamine in subjects with gambling disorder study completed in EXAMPLE 7, with the exceptions as follow: No behavioural tasks were completed. Self-report measures completed during EXAMPLE 9 included Social Phobia Inventory (SPIN), the Craving for Gaming Questionnaire (CGQ), and Generalised Anxiety Disorder-7 (GAD-7) the Sensitivity to Reward and Punishment Scale, and the Childhood Trauma Questionnaire, the Morningness-Eveningness Questionnaire (MEQ).
# [4] = Mean plasma ketamine, HNK and norketamine, all subjects of Examples 7-10; conditions: 100 mg racemic ketamine sublingual, analyte = label; for concentration at 10 min / concentration at 20 min / concentration at 30 min / concentration at 40 min / concentration at 50 min / concentration at 60 min / concentration at 70 min / concentration at 80 min / concentration at 90 min: human, plasma, other: sublingual
# Procedure: as §1
# FIGS. 11-13 illustrate ketamine, HNK, and norketamine levels, respectively, for all subjects of EXAMPLES 7-10, while FIG. 14 illustrates the mean plasma levels of ketamine, HNK, and norketamine for all subjects of EXAMPLES 7-10. Results indicated a mean plasma concentration of ketamine of 104.87 ng/ml at 10 minutes, 230.11 ng/ml at 20 minutes, 267.08 ng/ml at 30 minutes, 271.62 ng/ml at 40 minutes, 288.48 ng/ml at 50 minutes, 272.42 ng/ml at 60 minutes, 263.40 ng/ml at 70 minutes, 227.50 ng/ml at 80 minutes, and 176.91 ng/ml at 90 minutes. Mean HNK was 0 at 10 minutes, 12.22 ng/ml at 20 minutes, 56.73 ng/ml at 30 minutes, 79.10 ng/ml at 40 minutes, 126.20 ng/ml at 50 minutes, 198.87 ng/ml at 60 minutes, 221.08 ng/ml at 70 minutes, 209.14 ng/ml at 80 minutes, and 217.32 ng/ml at 90 minutes. Mean norketamine was 1.92 at 10 minutes, 57.39 ng/ml at 20 minutes, 141.78 ng/ml at 30 minutes, 286.02 ng/ml at 40 minutes, 505.15 ng/ml at 50 minutes, 646.73 ng/ml at 60 minutes, 750.57 ng/ml at 70 minutes, 723.79 ng/ml at 80 minutes, and 653.94 ng/ml at 90 minutes.
# [5] = subject BE1 (no data at 30 minutes)
SMILES,peak plasma concentration ([1]; subject G1),time of peak plasma concentration ([1]; subject G1) [min],peak plasma concentration ([1]; subject G2),time of peak plasma concentration ([1]; subject G2) [min],peak plasma concentration ([1]; subject G3),time of peak plasma concentration ([1]; subject G3) [min],peak plasma concentration ([1]; subject G4),time of peak plasma concentration ([1]; subject G4) [min],peak plasma concentration ([1]; subject G5),time of peak plasma concentration ([1]; subject G5),"peak plasma concentration [2, 5]","time of peak plasma concentration [2, 5] [min]",peak plasma concentration ([2]; subject BE2),time of peak plasma concentration ([2]; subject BE2) [min],peak plasma concentration ([2]; subject BE3),time of peak plasma concentration ([2]; subject BE3) [min],peak plasma concentration ([3]; subject IG1),time of peak plasma concentration ([3]; subject IG1) [min],peak plasma concentration ([3]; subject IG2),time of peak plasma concentration ([3]; subject IG2) [min],further results
"N[C@@]1(c2ccccc2Cl)CCC[C@@H](O)C1=O [HNK, (2S,6S;2R,6R)-hydroxynorketamine]",about 300 ng/ml,80,about 319 ng/ml,70,about 175 ng/ml,90,about 134 ng/ml,90,about 615 ng/ml,about 60 minutes,about 53 ng/ml,90,about 108 ng/ml,80,about 244 ng/mL,90,about 287 ng/ml,90,about 279 ng/ml,90,peak plasma concentration ([3]; subject IG3): about 407 ng/mL; time of peak plasma concentration ([3]; subject IG3): 60 min; mean plasma concentration ([4]; 10 minutes post-administration): 0 ng/mL; mean plasma concentration ([4]; 20 minutes post-administration): 12.22 ng/mL; mean plasma concentration ([4]; 30 minutes post-administration): 56.73 ng/mL; mean plasma concentration ([4]; 40 minutes post-administration): 79.10 ng/mL; mean plasma concentration ([4]; 50 minutes post-administration): 126.20 ng/mL; mean plasma concentration ([4]; 60 minutes post-administration): 198.87 ng/mL; mean plasma concentration ([4]; 70 minutes post-administration): 221.08 ng/mL; mean plasma concentration ([4]; 80 minutes post-administration): 209.14 ng/mL; mean plasma concentration ([4]; 90 minutes post-administration): 217.32 ng/mL
"NC1(c2ccccc2Cl)CCCCC1=O (racemic) [Norketamine, (R,S)-norketamine]",about 592 ng/ml,80,"about 1,450 ng/ml",70,about 574 ng/ml,80,about 495 ng/ml,90,"about 1,079 ng/ml",about 90 minutes,about 81 ng/ml,90,about 685 ng/ml,40,about 975 ng/mL,60,about 627 ng/ml,70,"about 1,040 ng/ml",50,"peak plasma concentration ([3]; subject IG3): about 1,116 ng/mL; time of peak plasma concentration ([3]; subject IG3): 60 min; concentration at 10 min ([4]; 10 minutes post-administration): 1.92 ng/mL; concentration at 20 min ([4]; 20 minutes post-administration): 57.4 ng/mL; concentration at 30 min ([4]; 30 minutes post-administration): 142 ng/mL; concentration at 40 min ([4]; 40 minutes post-administration): 286 ng/mL; concentration at 50 min ([4]; 50 minutes post-administration): 505 ng/mL; concentration at 60 min ([4]; 60 minutes post-administration): 647 ng/mL; concentration at 70 min ([4]; 70 minutes post-administration): 751 ng/mL; concentration at 80 min ([4]; 80 minutes post-administration): 724 ng/mL; concentration at 90 min ([4]; 90 minutes post-administration): 654 ng/mL"
"CNC1(c2ccccc2Cl)CCCCC1=O (racemic) [ketamine, 2-(2-chlorophenyl)-2-(methylamino)-cyclohexanone]",about 250 ng/ml,30,about 405 ng/ml,70,about 395 ng/ml,80,about 291 ng/ml,80,about 426 ng/ml,about 20 minutes,about 270 ng/ml,20,about 339 ng/ml,20,about 208 ng/mL,60,about 390 ng/ml,50,about 301 ng/ml,50,peak plasma concentration ([3]; subject IG3): about 670 ng/mL; time of peak plasma concentration ([3]; subject IG3): 50 min; concentration at 10 min ([4]; 10 minutes post-administration): 105 ng/mL; concentration at 20 min ([4]; 20 minutes post-administration): 230 ng/mL; concentration at 30 min ([4]; 30 minutes post-administration): 267 ng/mL; concentration at 40 min ([4]; 40 minutes post-administration): 272 ng/mL; concentration at 50 min ([4]; 50 minutes post-administration): 288 ng/mL; concentration at 60 min ([4]; 60 minutes post-administration): 272 ng/mL; concentration at 70 min ([4]; 70 minutes post-administration): 263 ng/mL; concentration at 80 min ([4]; 80 minutes post-administration): 228 ng/mL; concentration at 90 min ([4]; 90 minutes post-administration): 177 ng/mL
